Measurements reported in patent US20250011304A1, “CRYSTALLINE FORM OF N-(2-CHLORO-3-((5-CHLORO-3-METHYL-4-OXO-3,4-DIHYDROQUINAZOLIN-6-YL)AMINO)-4-FLUOROPHENYL)-3-FLUOROAZETIDINE-1-SULFONAMIDE” (Array BioPharma Inc., priority 2021, published 2025).
pIC50: −log10 of the molar value. “Also recorded” adds a separate entry of the source.

Tests used:
BCRP [1] = target: T1, BCRP (Mus musculus, UniProt Q7TMS5); details: reported by Mittapalli et al.; cited from earlier work
T1 sequence (Q7TMS5 1-657): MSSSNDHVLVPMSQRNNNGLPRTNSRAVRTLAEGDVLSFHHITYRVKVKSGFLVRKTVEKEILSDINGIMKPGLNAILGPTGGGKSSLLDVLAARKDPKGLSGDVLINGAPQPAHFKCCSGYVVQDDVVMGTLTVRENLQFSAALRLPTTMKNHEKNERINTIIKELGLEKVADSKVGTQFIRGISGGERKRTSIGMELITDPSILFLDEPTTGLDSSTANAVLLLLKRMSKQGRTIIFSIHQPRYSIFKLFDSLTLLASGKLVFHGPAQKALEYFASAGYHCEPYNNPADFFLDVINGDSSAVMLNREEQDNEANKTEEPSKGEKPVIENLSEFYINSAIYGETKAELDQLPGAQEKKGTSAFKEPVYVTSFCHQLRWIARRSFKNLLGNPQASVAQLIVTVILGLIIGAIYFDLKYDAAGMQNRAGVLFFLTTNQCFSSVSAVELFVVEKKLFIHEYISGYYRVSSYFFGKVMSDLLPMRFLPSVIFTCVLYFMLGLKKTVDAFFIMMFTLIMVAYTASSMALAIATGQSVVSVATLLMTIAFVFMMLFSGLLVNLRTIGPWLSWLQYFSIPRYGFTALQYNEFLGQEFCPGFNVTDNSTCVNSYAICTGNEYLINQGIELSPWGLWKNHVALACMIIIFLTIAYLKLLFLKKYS

[2] = Physical stability analysis by PXRD; assay type: physicochemical; details: for physical stability under accelerated stability conditions: 70° C./75% relative humidity (RH) for 8 days
Description: Powder X-ray Diffraction (PXRD) method for characteristic peak determination Powder X-ray diffraction analysis was conducted using a Bruker AXS D8 Endeavor diffractometer equipped with a Copper (Cu) radiation source. The divergence slit was set at 15 mm continuous illumination. Diffracted radiation was detected by a PSD-Lynx Eye detector, with the detector PSD opening set at 2.99 degrees. The X-ray tube voltage and amperage were set to 40 kV and 40 mA respectively. Data was collected in the Theta-Theta goniometer at the Cu wavelength (CuKα=[…]) from 3.0 to 40.0 degrees 2-Theta using a step size of 0.01 degrees and a step time of 1.0 second. The antiscatter screen was set to a fixed distance of 3.0 mm. Samples were rotated at 15/min during collection. Samples were prepared by placing them in a silicon low background sample holder and rotated during collection. Data were collected using Bruker DIFFRAC Plus software and analysis was performed by EVA diffract plus software. The PXRD data file was not processed prior to peak searching. Using the peak search algorithm in the EVA software, peaks selected with a threshold value of 1 were used to make preliminary peak assignments. To ensure validity, adjustments were manually made; the output of automated assignments was visually checked, and peak positions were adjusted to the peak maximum. Peaks with relative intensity of >3% were generally chosen. Typically, the peaks which were not resolved or were consistent with noise were not selected. A typical error associated with the peak position from PXRD stated in USP up to +/−0.2° 2-Theta (USP-941).
Table 5 details the differences between Form 1 and amorphous form.

[3] = Hygroscopicity (DVS water sorption and desorption); assay type: physicochemical; details: for Hygroscopicity: DVS 0-90% RH; for Mass Gain at 25° C. and 60% RH / Mass Gain at 25° C. and 90% RH: DVS; for PXRD Post-DVS: solid form of powder remaining after DVS analysis
Description: Water sorption and desorption were analyzed with a DVS-Resolution. The microbalance was calibrated with a 100 mg standard weight on a monthly basis. About 8 mg of the compound was added to a sample pan and placed inside chamber A of the DVS-Resolution. Percent relative humidity was held at 0% for 1 hour, and increased to 90% in 10% increments, then ramped back to 0% in 10% increments. […] The powder material remaining following the DVS analysis was analyzed by PXRD to determine if a change in the diffraction pattern is observed.

MDR1 (P-gp) = target: T2, MDR1 (P-gp) (Homo sapiens, UniProt P08183); assay: MDR1 LLC-PK1 permeability assay (efflux); assay type: in vitro ADME; details: statement in background
T2 construct: expressed in transfected cells; host or cells: LLC-PK1
T2 sequence (P08183 whole entry, species assumed): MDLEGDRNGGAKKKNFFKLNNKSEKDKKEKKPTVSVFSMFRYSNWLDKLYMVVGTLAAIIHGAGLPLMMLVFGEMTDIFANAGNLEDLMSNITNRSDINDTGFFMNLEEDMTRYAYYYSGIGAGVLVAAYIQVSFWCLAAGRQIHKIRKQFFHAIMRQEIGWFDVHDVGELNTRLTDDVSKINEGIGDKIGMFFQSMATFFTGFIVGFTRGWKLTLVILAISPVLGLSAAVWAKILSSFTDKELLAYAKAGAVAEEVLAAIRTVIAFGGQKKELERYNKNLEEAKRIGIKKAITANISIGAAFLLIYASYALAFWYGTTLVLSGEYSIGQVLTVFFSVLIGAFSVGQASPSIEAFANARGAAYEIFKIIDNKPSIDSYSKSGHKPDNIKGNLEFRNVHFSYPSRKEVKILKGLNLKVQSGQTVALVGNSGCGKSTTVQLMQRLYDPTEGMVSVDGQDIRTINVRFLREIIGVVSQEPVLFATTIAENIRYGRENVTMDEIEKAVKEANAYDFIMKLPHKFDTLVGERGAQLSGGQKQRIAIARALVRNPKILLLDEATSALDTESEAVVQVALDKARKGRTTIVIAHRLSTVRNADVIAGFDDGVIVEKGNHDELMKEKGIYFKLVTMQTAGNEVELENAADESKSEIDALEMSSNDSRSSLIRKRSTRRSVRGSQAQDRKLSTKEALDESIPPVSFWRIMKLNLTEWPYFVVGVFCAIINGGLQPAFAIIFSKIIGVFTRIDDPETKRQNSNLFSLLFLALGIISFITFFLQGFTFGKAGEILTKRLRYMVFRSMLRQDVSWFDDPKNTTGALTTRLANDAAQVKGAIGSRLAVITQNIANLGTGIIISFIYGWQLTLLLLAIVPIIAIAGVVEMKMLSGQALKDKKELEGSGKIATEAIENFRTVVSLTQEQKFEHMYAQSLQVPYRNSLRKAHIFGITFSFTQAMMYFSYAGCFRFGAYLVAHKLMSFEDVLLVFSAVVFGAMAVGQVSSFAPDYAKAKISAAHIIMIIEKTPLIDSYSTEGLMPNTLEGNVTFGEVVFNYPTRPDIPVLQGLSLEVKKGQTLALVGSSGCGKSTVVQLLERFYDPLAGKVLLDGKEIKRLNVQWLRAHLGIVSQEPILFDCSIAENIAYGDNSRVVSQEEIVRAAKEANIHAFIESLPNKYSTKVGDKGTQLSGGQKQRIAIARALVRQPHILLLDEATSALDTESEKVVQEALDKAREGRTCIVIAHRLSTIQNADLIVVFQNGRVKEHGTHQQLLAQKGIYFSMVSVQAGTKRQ
Text: (§1) Final organic concentration in the assay was 1%.
(§2) The efflux ratios for N-(2-chloro-3-((5-chloro-3-methyl-4-oxo-3,4-dihydroquinazolin-6-yl)amino)-4-fluorophenyl)-3-fluoroazetidine-1-sulfonamide (Compound 1) when tested in this assay were 2.1 (MDR1) and 4.2 (BCRP).

[4] = target: T3, full-length FLAG-tagged B-Raf(V600E) (Homo sapiens, UniProt P15056, V600E); assay: BRAF V600E enzyme assay (TR-FRET competitive tracer displacement); assay type: binding; details: 60 min, ambient temperature
T3 construct: 5 nM full-length, N-terminally FLAG-tagged B-Raf(V600E) (Origene Technologies, TP700031); purchased Origene Technologies TP700031
T3 sequence (P15056 whole entry V600E): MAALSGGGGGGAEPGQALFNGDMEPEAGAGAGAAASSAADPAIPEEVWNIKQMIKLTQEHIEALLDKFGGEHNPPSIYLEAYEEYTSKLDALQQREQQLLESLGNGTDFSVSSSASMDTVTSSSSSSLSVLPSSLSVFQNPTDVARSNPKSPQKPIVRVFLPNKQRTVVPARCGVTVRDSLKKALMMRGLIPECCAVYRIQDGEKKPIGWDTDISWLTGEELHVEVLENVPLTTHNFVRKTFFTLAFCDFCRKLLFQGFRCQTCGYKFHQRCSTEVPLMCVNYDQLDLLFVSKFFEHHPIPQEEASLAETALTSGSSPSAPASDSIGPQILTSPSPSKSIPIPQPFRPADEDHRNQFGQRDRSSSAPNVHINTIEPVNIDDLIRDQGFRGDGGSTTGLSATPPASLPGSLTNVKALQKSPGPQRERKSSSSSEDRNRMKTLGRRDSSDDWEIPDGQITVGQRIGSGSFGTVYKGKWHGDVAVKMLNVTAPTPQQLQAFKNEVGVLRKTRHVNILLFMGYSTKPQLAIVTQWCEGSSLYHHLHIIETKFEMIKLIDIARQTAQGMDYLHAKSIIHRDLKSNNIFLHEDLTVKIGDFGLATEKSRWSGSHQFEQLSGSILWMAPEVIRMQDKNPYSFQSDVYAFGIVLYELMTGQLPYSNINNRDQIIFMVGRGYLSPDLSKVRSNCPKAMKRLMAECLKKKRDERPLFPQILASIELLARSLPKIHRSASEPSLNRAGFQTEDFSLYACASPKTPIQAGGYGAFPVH
Description: A competitive displacement assay was configured for B-Raf that monitors the amount of a fluorescently-tagged “tracer” bound to B-Raf via TR-FRET from an anti-tag Eu-labeled antibody also bound to B-Raf. For full-length FLAG-tagged B-Raf(V600E), the assay mixtures consisted of 25 mM K^+HEPES, pH 7.4, 10 mM MgCl2, 0.01% Triton X-100, 1 mM DTT, 2% DMSO (from compound), 50 nM Tracer 1710 (ThermoFisher, PR9176A), 0.5 nM Eu anti-FLAG (M2)-cryptate Ab (Cisbio, 61FG2KLB) and 5 nM full-length, N-terminally FLAG-tagged B-Raf(V600E) (Origene Technologies, TP700031. N-(2-chloro-3-((5-chloro-3-methyl-4-oxo-3,4-dihydroquinazolin-6-yl)amino)-4-fluorophenyl)-3-fluoroazetidine-1-sulfonamide was diluted in DMSO across an 11-point dosing range created using a 3-fold serial dilution protocol at a top dose of 10 μM. The assay was run in 384-well, polystyrene, low-volume, non-treated, white microtiter plates (Costar 4512) in a final volume of 12 μL. Low control wells included 1 μM of a potent B-Raf inhibitor as a control. The assays were incubated at ambient temperature (typically 22° C.) for 60 min and then read on a PerkinElmer EnVision microplate reader using standard TRF settings (λEx=320 nm, λEm=615 & 665 nm). The ratioed counts (665 nm/615 nm) were converted to percent of control (POC) using the following equation:
[formula] • where: • xmax Average Uninhibited Controls • Xmin Average Background […]

BCRP [5] = target: T4, BCRP (Homo sapiens, UniProt Q9UNQ0); assay: BCRP MDCKII permeability assay (efflux); assay type: in vitro ADME; details: statement in background
T4 construct: expressed in transfected cells; host or cells: MDCKII
T4 sequence (Q9UNQ0 1-655): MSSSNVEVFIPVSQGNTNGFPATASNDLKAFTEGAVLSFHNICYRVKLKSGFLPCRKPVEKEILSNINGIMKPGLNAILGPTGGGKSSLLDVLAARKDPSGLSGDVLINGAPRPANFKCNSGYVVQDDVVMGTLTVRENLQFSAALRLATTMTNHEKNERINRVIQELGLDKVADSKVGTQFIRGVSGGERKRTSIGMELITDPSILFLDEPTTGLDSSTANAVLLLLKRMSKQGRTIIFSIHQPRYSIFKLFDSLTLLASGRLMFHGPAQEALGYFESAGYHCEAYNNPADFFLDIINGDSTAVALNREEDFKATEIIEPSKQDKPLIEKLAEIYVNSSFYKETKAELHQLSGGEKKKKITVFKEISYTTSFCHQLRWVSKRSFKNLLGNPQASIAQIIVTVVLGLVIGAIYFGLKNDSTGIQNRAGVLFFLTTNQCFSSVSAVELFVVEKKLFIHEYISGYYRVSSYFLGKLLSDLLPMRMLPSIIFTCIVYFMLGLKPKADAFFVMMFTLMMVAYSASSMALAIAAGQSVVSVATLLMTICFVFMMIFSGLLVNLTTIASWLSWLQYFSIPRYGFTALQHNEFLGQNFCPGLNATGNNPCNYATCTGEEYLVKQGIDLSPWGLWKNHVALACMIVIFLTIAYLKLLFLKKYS
Text: as §1, §2

[6] = PK (free brain-to-free plasma ratio) (mouse); assay type: in vivo; details: male CD-1 mice, oral gavage 10 mg/kg, (B/P)*(Bfu/Pfu)
Description: The ability of N-(2-chloro-3-((5-chloro-3-methyl-4-oxo-3,4-dihydroquinazolin-6-yl)amino)-4-fluorophenyl)-3-fluoroazetidine-1-sulfonamide (Compound 1) to penetrate the BBB in mice was determined by evaluating the unbound brain-to-unbound plasma (also referred to as free brain-to-free plasma) concentration ratio in male CD-1 mice.
Brain compound levels were generated from oral mouse PK dosing with typical sampling times of 2, 4, 8, 12 and 24 hours post oral gavage dosing at 10 mg/kg. Brain samples were stored at −20±5° C. prior to analysis. Concentrations of Compound 1 in mouse brain homogenate were determined by liquid chromatography tandem mass spectrometry (LC-MS/MS) following protein precipitation with acetonitrile. A 12-point calibration curve, ranging from 0.5 to 10,000 ng/mL, was prepared in duplicate. […]
Brain-to-plasma ratios were calculated using the concentration of Compound 1 measured in the brain divided by the concentration of compound measured in the plasma. […] Free brain-to-free plasma ratios were calculated by multiplying the brain-to-plasma ratio by the in vitro brain homogenate free fraction divided by the in vitro plasma free fraction using the following equation: (B/P)*(Bfu/Pfu). […]

Row | SMILES | BCRP efflux ratio (BCRP [1]) | physical stability under accelerated stability conditions [2] | Solid form identified by PXRD after 8 days ([2]; stored at 5° C.) | Solid form identified by PXRD after 8 days ([2]; stored at 70° C./75% RH) | Hygroscopicity [3] | Mass Gain at 25° C. and 90% RH [3] | also measured
1 | CC(C)(C)c1nc(-c2cccc(NS(=O)(=O)c3c(F)cccc3F)c2F)c(-c2ccnc(N)n2)s1 [dabrafenib] | 21.0 | – | – | – | – | – | –
2 | Cn1cnc2ccc(Nc3c(F)ccc(NS(=O)(=O)N4CC(F)C4)c3Cl)c(Cl)c2c1=O [crystalline anhydrous Compound 1, Form 1, crystalline anhydrous N-(2-chloro-3-((5-chloro-3-methyl-4-oxo-3,4-dihydroquinazolin-6-yl)amino)-4-fluorophenyl)-3-fluoroazetidine-1-sulfonamide, Form 1] | – | stable | crystalline anhydrous | crystalline anhydrous | not hygroscopic; also recorded: Non-Hygroscopic | 0.0% | Mass Gain at 25° C. and 60% RH [3]: 0.0%; PXRD Post-DVS [3]: crystalline anhydrous
3 | CCCS(=O)(=O)Nc1ccc(F)c(C(=O)c2c[nH]c3ncc(-c4ccc(Cl)cc4)cc23)c1F [vemurafenib] | 495 | – | – | – | – | – | –
4 | Cn1cnc2ccc(Nc3c(F)ccc(NS(=O)(=O)N4CC(F)C4)c3Cl)c(Cl)c2c1=O [amorphous Compound 1, Form 2, amorphous N-(2-chloro-3-((5-chloro-3-methyl-4-oxo-3,4-dihydroquinazolin-6-yl)amino)-4-fluorophenyl)-3-fluoroazetidine-1-sulfonamide, Form 2] | – | crystallized to crystalline anhydrous Compound 1, Form 1 | amorphous compound 1, | crystalline anhydrous | hygroscopic | approximately 3.6% | Hygroscopicity ([3]; Form 2): Hygroscopic; Mass Gain at 25° C. and 60% RH ([3]; Form 2): 1.7%; Mass Gain at 25° C. and 90% RH ([3]; Form 2): 3.6%; PXRD Post-DVS ([3]; Form 2): amorphous Compound
5 | Cn1cnc2ccc(Nc3c(F)ccc(NS(=O)(=O)N4CC(F)C4)c3Cl)c(Cl)c2c1=O [Compound 1, N-(2-chloro-3-((5-chloro-3-methyl-4-oxo-3,4-dihydroquinazolin-6-yl)amino)-4-fluorophenyl)-3-fluoroazetidine-1-sulfonamide] | – | – | – | – | – | – | substrate of active transporter P-glycoproteins (P-gp) (MDR1 (P-gp)): not a substrate; pIC50 [4]: 8.52; substrate of active transporter breast cancer resistance protein (BCRP) (BCRP [5]): not a substrate; Kp,uu (unbound brain-to-unbound plasma ratio) [6]: 0.12 to 0.17
